From PubChem BioAssay AID1963870 (Molecular Pharmacology Branch, DTP, NCI, 2024)

Test system: 292921-168-R-J2-PDC KRAS tumor spheroid viability
Assay: Anticancer human tumor 292921-168-R-J2-PDC patient-derived pancreatic carcinoma cell line growth inhibition [KRAS2]
Settings: spheroids with HUVEC and MSC; for IC50: curve of first compound; for viability, T/C: stronger effect = lower value
In short: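 Combination screen of spheroid viability in tumor-cell co-cultures with endothelial (HUVEC) and mesenchymal stem cell stroma. Each agent was tested in half-log dilutions, topping at clinical Cmax or at 10 microM without a known Cmax.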

[1] = second compound 0.1 µM, first compound 0.00316 µM
[2] = second compound 0.1 µM, first compound 0.01 µM
[3] = second compound 0.1 µM, first compound 0.0316 µM
[4] = second compound 0.316 µM, first compound 0.00316 µM
[5] = second compound 0.316 µM, first compound 0.01 µM
[6] = second compound 0.316 µM, first compound 0.0316 µM
[7] = second compound 1 µM, first compound 0.00316 µM
[8] = second compound 1 µM, first compound 0.01 µM
[9] = second compound 1 µM, first compound 0.0316 µM
[10] = second compound 3.16 µM, first compound 0.00316 µM
[11] = second compound 3.16 µM, first compound 0.01 µM
[12] = second compound 3.16 µM, first compound 0.0316 µM
[13] = second compound 10 µM, first compound 0.00316 µM
[14] = second compound 10 µM, first compound 0.01 µM
[15] = second compound 10 µM, first compound 0.0316 µM
[16] = second compound 0.1 µM, first compound 0.1 µM
[17] = second compound 0.1 µM, first compound 0.316 µM
[18] = second compound 0.1 µM, first compound 1 µM
[19] = second compound 0.1 µM, first compound 3.16 µM
[20] = second compound 0.316 µM, first compound 0.1 µM
[21] = second compound 0.316 µM, first compound 0.316 µM
[22] = second compound 0.316 µM, first compound 1 µM
[23] = second compound 0.316 µM, first compound 3.16 µM
[24] = second compound 1 µM, first compound 0.1 µM
[25] = second compound 1 µM, first compound 0.316 µM
[26] = second compound 1 µM, first compound 1 µM
[27] = second compound 1 µM, first compound 3.16 µM
[28] = second compound 3.16 µM, first compound 0.1 µM
[29] = second compound 3.16 µM, first compound 0.316 µM
[30] = second compound 3.16 µM, first compound 1 µM
[31] = second compound 3.16 µM, first compound 3.16 µM
[32] = second compound 10 µM, first compound 0.1 µM
[33] = second compound 10 µM, first compound 0.316 µM
[34] = second compound 10 µM, first compound 1 µM
[35] = second compound 10 µM, first compound 3.16 µM
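Note: drug exposure lasted seven days after spheroids formed for three days.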
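Throughout, for viability, T/C: percent of DMSO vehicle control viability which is 100%.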

SMILES	IC50 (second compound 0.1 µM) [nM]	IC50 (second compound 0.316 µM) [nM]	IC50 (second compound 1 µM) [nM]	IC50 (second compound 3.16 µM) [nM]	IC50 (second compound 10 µM) [nM]	viability, T/C [2] [%]	viability, T/C [3] [%]	viability, T/C [5] [%]	viability, T/C [6] [%]	viability, T/C [8] [%]	viability, T/C [9] [%]	viability, T/C [11] [%]	viability, T/C [12] [%]	viability, T/C [14] [%]	viability, T/C [15] [%]	viability, T/C [16] [%]	viability, T/C [17] [%]	viability, T/C [18] [%]	viability, T/C [20] [%]	viability, T/C [21] [%]	also measured
CC(=O)Nc1cccc(-n2c(=O)n(C3CC3)c(=O)c3c(Nc4ccc(I)cc4F)n(C)c(=O)c(C)c32)c1 + CNCc1ccccc1-c1csc(C(C)Nc2nc(C)nc3cc(OC)c(OC)cc23)c1	0.207	0.178	0.124	< 0.1	< 0.1	12	8.12	12.3	8.64	10.4	8.11	0.04	0.15	0.12	0.2						viability, T/C (second compound 0.1 µM, first compound 0.0001 µM): 66%; viability, T/C (second compound 0.1 µM, first compound 0.000316 µM): 41.9%; viability, T/C (second compound 0.1 µM, first compound 0.001 µM): 20.2%; viability, T/C [1]: 17.5%; viability, T/C (second compound 0.316 µM, first compound 0.0001 µM): 64.5%; viability, T/C (second compound 0.316 µM, first compound 0.000316 µM): 35.3%; viability, T/C (second compound 0.316 µM, first compound 0.001 µM): 21.8%; viability, T/C [4]: 16.3%; viability, T/C (second compound 1 µM, first compound 0.0001 µM): 55%; viability, T/C (second compound 1 µM, first compound 0.000316 µM): 28.2%; viability, T/C (second compound 1 µM, first compound 0.001 µM): 17.9%; viability, T/C [7]: 13.7%; viability, T/C (second compound 3.16 µM, first compound 0.0001 µM): 0.21%; viability, T/C (second compound 3.16 µM, first compound 0.000316 µM): 0.07%; viability, T/C (second compound 3.16 µM, first compound 0.001 µM): 0.05%; viability, T/C [10]: 0.04%; viability, T/C (second compound 10 µM, first compound 0.0001 µM): 0.11%; viability, T/C (second compound 10 µM, first compound 0.000316 µM): 0.11%; viability, T/C (second compound 10 µM, first compound 0.001 µM): 0.11%; viability, T/C [13]: 0.12%
CC(=O)OC12COC1CC(O)C1(C)C(=O)C(O)C3=C(C)C(OC(=O)C(O)C(NC(=O)OC(C)(C)C)c4ccccc4)CC(O)(C(OC(=O)c4ccccc4)C21)C3(C)C (stereo not given) + COc1cc2nc(C)nc(NC(C)c3cc(N)cc(C(F)(F)F)c3)c2cc1OC1CCOC1	< 10	< 10	< 10	< 10	< 10	13.7	15.2	13.7	14.7	13.3	16.2	12.1	13.4	13.5	13.3	10.7	12.1	14	10.9	12.6	viability, T/C [19]: 19%; viability, T/C [22]: 14.7%; viability, T/C [23]: 18.8%; viability, T/C [24]: 13.6%; viability, T/C [25]: 10.9%; viability, T/C [26]: 16.1%; viability, T/C [27]: 18.9%; viability, T/C [28]: 11.2%; viability, T/C [29]: 11.4%; viability, T/C [30]: 14.1%; viability, T/C [31]: 18.7%; viability, T/C [32]: 14%; viability, T/C [33]: 12.8%; viability, T/C [34]: 11.9%; viability, T/C [35]: 13.2%
CCN1CCN(Cc2ccc(Nc3ncc(F)c(-c4cc(F)c5nc(C)n(C(C)C)c5c4)n3)nc2)CC1 + CNCc1ccccc1-c1csc(C(C)Nc2nc(C)nc3cc(OC)c(OC)cc23)c1	19.8	16.1	4.44	< 3.16	< 3.16	60.9	42	57.4	37.1	42.6	28.6	0.07	0.04	0.11	0.08	30.9	24.8	19.1	31.8	23.6	viability, T/C [1]: 76.5%; viability, T/C [4]: 73.2%; viability, T/C [22]: 12.3%; viability, T/C [7]: 54.3%; viability, T/C [24]: 22.3%; viability, T/C [25]: 21.3%; viability, T/C [26]: 0.5%; viability, T/C [10]: 0.12%; viability, T/C [28]: 0.05%; viability, T/C [29]: 0.1%; viability, T/C [30]: 0.1%; viability, T/C [13]: 0.11%; viability, T/C [32]: 0.08%; viability, T/C [33]: 0.08%; viability, T/C [34]: 0.13%
CC1OCC2(CCN(c3cnc(Sc4ccnc(N)c4Cl)c(N)n3)CC2)C1N (stereo not given) + COc1cc2nc(C)nc(NC(C)c3cc(N)cc(C(F)(F)F)c3)c2cc1OC1CCOC1	242	127	102	53	< 31.6		70.2		69.2		62.4		56.1		23.1	60.1	46.6	36.8	53	39.9	viability, T/C [19]: 30.2%; viability, T/C (second compound 0.1 µM, first compound 10 µM): 26.9%; viability, T/C [22]: 33.1%; viability, T/C [23]: 29.2%; viability, T/C (second compound 0.316 µM, first compound 10 µM): 26.1%; viability, T/C [24]: 51%; viability, T/C [25]: 36.1%; viability, T/C [26]: 31.1%; viability, T/C [27]: 26.3%; viability, T/C (second compound 1 µM, first compound 10 µM): 24.3%; viability, T/C [28]: 42.4%; viability, T/C [29]: 33.5%; viability, T/C [30]: 27.5%; viability, T/C [31]: 23.8%; viability, T/C (second compound 3.16 µM, first compound 10 µM): 21.7%; viability, T/C [32]: 20.2%; viability, T/C [33]: 17.4%; viability, T/C [34]: 14.2%; viability, T/C [35]: 15.4%; viability, T/C (second compound 10 µM, first compound 10 µM): 13.2%
